In PubChem BioAssay AID179 (DTP/NCI, 2004):
Several values for one entry are separate records, joined by “and”; a condition that tells them apart may be missing. Equal entries are not always repeated. Activity calls are given as the source filed them.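 How the source made its calls: active means compounds giving half or more protection of infected cells from virus-caused growth loss, again on retest; inactive means the rest.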 Where a SMILES comes first, the peptide text is derived from it.

Test system: CEM cells HIV-1 protection, formazan growth assay
Assay: NCI AIDS Antiviral Assay
Conditions: for IC50: measured here: growth of uninfected CEM cells
How it was run: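 Protection of CEM cells against HIV-1 was scored from cell growth (soluble formazan) across five concentrations, with parallel uninfected cells. Lack of protection may reflect toxicity.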

SMILES | EC50 | IC50 | outcome
CCOC(=O)N/N=C/c1cccs1 | > 200 µM | > 200 µM | –
O=c1[nH]c2ccccc2c(O)c1N=Nc1ccc(S(=O)(=O)O)cc1 | > 200 µM | > 200 µM | –
O=C1C2=C(CC3C(C2)C3(Br)Br)C(=O)C2=C1CC1C(C2)C1(Br)Br (centres undefined) | > 9.33 µM | > 9.33 µM | –
ClCCCCCc1c2nc(c(CCCCCCl)c3ccc([nH]3)c(CCCCCCl)c3ccc([nH]3)c(CCCCCCl)c3nc1C=C3)C=C2 | > 200 µM | > 200 µM | –
O=C(OC1CCCCC1)c1cc(NC(=S)c2ccsc2)ccc1Cl | 0.141 µM | 11.2 µM | –
CN(C)Cc1cc(O)c(CN(C)C)cc1O | > 200 µM | 9.33 µM | –
Cc1cc(C)nc(NS(=O)(=O)c2ccc(Nc3c4ccccc4nc4c(C(=O)Nc5ccc(S(=O)(=O)N=C(N)N)cc5)cccc34)cc2)n1 | 49 µM | 51.3 µM | –
CC(=O)N1CCN(CCCCN2c3ccccc3Sc3cc(N=[N+]=[N-])ccc32)CC1 | > 200 µM | 6.61 µM | –
CC12CP(=O)(c3ccccc3)CC1C2(Cl)Cl (centres undefined) | – | – | inactive
COc1c2oc(=O)ccc2c(Br)c2c(Br)c(Br)oc12 | > 102 µM | 47.9 µM | –
O=C(O/N=C1/CCCC/C1=C\c1ccccc1)c1ccc(Cl)cc1 | – | – | inactive
O=C1CNN=C(Cn2nc(-c3ccccc3)c3ccccc3c2=O)N1 | > 6.03 µM | > 6.03 µM | –
N#Cc1c(C#N)c(-c2ccccc2)n(/N=C\c2ccccc2)c1N | > 200 µM | 14.5 µM | –
COc1ccc(N/N=C/C2=CC(C)(C)C(C#N)(C#N)C(O)=C2C#N)cc1 | > 200 µM | 28.2 µM | –
O/N=C1/COC(C(F)(F)F)(C(F)(F)F)C1 | > 200 µM | > 200 µM | –
COC1c2ccccc2CC(c2ccccc2)=NN1C(C)=O (centres undefined) | > 89.1 µM | 51.3 µM | –
c1ccc(CCC[P+](c2ccccc2)(c2ccccc2)c2ccccc2)cc1 | > 200 µM | 0.692 µM | –
C1CSCC2(COC2)CS1 | > 1410 µM | 1320 µM | –
O=C1NC(=O)C(=Cn2c(=S)sc3ccccc32)C(=O)N1 | > 200 µM | > 200 µM | –
CC(N)C(=O)NC(CO)C(=O)NC(Cc1ccc(O)cc1)C(=O)NC(CO)C(=O)NC(C(=O)O)C(C)O (centres undefined) (H-ASYST-OH; configuration not given here) | > 95.5 µM | > 95.5 µM | –

SMILES | EC50 | IC50 | outcome
Cc1cc2nc3c4ccccc4n(C)c3nc2cc1C | > 7.59 µM | 5.25 µM | –
Cc1cc(S(=O)(=O)Nc2nncn2-c2ccc(Cl)cc2)c(S)cc1Cl | – | – | inactive
c1ccc(N=C2SC(c3ccccc3)CN2C23CC4CC(CC(C4)C2)C3)cc1 (centres undefined) | > 200 µM | > 200 µM | –
CN1CCN(C2=Nc3ccccc3Cc3ccccc32)CC1 | > 170 µM | 64.6 µM | –
c1ccc(CCN(CCc2ccccn2)CCc2ccccn2)nc1 | > 200 µM | > 100 µM | –
COc1cccc(NC(=O)CC(=O)Nc2cccc(OC)c2)c1 | > 200 µM | > 200 µM | –
CCCCNC(=O)Cn1c2ccc(Br)cc2c2nc3ccccc3nc21 | > 100 µM | > 100 µM | –
S=c1sc2ccccc2n1CCSSCCn1c(=S)sc2ccccc21 | > 200 µM | 191 µM | –
Cc1ccc(C(=O)O)cc1NC(=O)c1cc(/C=C/c2ccccc2)[nH]c(=S)n1 | > 240 µM | > 240 µM | –
Cc1cc2c(C(C)C)c(O)c(O)c(C=NCCO)c2c(O)c1-c1c(C)cc2c(C(C)C)c(O)c(O)c(C=NCCO)c2c1O | – | – | inactive
CC1C=CC(C(=O)O)C2C(=O)OC(=O)C12 (centres undefined) | > 1200 µM | > 1200 µM | –
Cc1ccc(S(=O)(=O)NC(=O)NCCc2ccccc2)cc1 | 7.08 µM | 295 µM | –
C=CCC(/C=C\CC)(C(=O)O)C(=O)O | > 661 µM | > 661 µM | –
CSc1nc(N)c(NC2OC(CO)C(O)C2O)c(=O)[nH]1 (centres undefined) | 81.3 µM and > 200 µM | 110 µM and 112 µM | –
O=[N+]([O-])c1ccc(C2Nc3cc(Cl)c(Cl)cc3S(=O)(=O)N2O)cc1 (centres undefined) | > 93.3 µM | 64.6 µM | –
Cc1nnc(N/N=C(/C(=O)C(C#N)c2ccc(Cl)cc2)C(C#N)c2ccc(Cl)cc2)n1N (centres undefined) | > 537 µM | 91.2 µM | –
COc1ccc2c(c1)-c1nc(=S)n(CCCN(C)C)c3ccc([N+](=O)[O-])c(c13)N2 | > 2 µM | 0.389 µM | –
O=C(N=Nc1cccc(Cl)c1)NNc1cccc(Cl)c1 | > 200 µM | 15.5 µM | –
Cc1c(C(=O)CC(=O)C(=O)Nc2ccc(Cl)c(Cl)c2)[n+](=O)c2ccccc2n1[O-] | > 6.31 µM | > 6.31 µM | –
O=C(Nc1ccc(Cl)c(Cl)c1)OCn1ncc2ccc([N+](=O)[O-])cc21 | > 200 µM | 132 µM | –

SMILES | EC50 | IC50 | outcome
CN1CC2CC3=C(CCC45CC6C(C=C34)C63CCC4(CC67CCC8C9(C)CCCC8%10C(C6CC4CC7%10)N(C)C9)OC53)C(C)(C2)C1 (centres undefined) | – | – | inactive
CCOC(=O)N1c2c(ccn2C)-c2ccn(C)c2N1C(=O)OCC | > 15.1 µM | 5.89 µM | –
CCOP(=O)(OCC)/C(C#N)=C/c1cccc(C#N)c1 | > 617 µM | 102 µM | –
C[C@@H]1CC[C@@]2(OC1)O[C@H]1C[C@H]3[C@@H]4CC[C@H]5C[C@@H](OC6OC(CO)C(OC7OC(CO)C(O)C(OC8OCC(O)C(O)C8O)C7OC7OC(CO)C(O)C(O)C7O)C(O)C6O)[C@H](O)C[C@]5(C)[C@H]4CC[C@]3(C)[C@H]1[C@@H]2C (some centres undefined) | > 2 µM | 1 µM | –
CCC(c1ccc(OC(C)=O)c(CC(Br)CBr)c1)C(CC)c1ccc(OC(C)=O)c(CC(Br)CBr)c1 (centres undefined) | > 100 µM | 16.2 µM | –
Cc1cc(S(=O)(=O)Nc2n[nH]c(Nc3ccc(Cl)cc3)n2)c(S)cc1Cl | > 100 µM | > 100 µM | –
O=C(/C=C/c1ccccc1)CCC1C(=O)NC(=S)NC1=O | > 85.1 µM | > 85.1 µM | –
CCNc1nnc(CSc2nc(-c3ccccc3)c(-c3ccccc3)[nH]2)s1 | > 25.1 µM | 12.9 µM | –
O=C(COC(=O)c1cccc2c(=O)c3ccccc3[nH]c12)Nc1ccc(Cl)cc1 | – | – | inactive
S=C(N/N=C(/c1ccccc1)c1ccccn1)Nc1ccccc1Cl | > 0.2 µM | 0.0871 µM | –
COc1ccc2c3c1O[C@]1(C)C34CCN(C)C(C2)C42C=C[C@@]1(OC)c1c(O)ccc(O)c12 | > 60.3 µM | > 60.3 µM | –
CC(=O)Nc1ccc(/C=C/c2ccc(N=C=S)cc2S(=O)(=O)O)c(S(=O)(=O)O)c1 | > 21.9 µM | > 21.9 µM | –
O=C1c2ccccc2NC2(C(=O)Nc3ccccc32)N1N1CCOCC1 (centres undefined) | > 200 µM | > 200 µM | –
O=NC1C(Cl)C2CC1C1C(Br)C(Br)CC21 (centres undefined) | > 200 µM | > 200 µM | –
Cc1ccc(S(=O)(=O)CC2CCCn3c2c(C#N)c2ccccc23)cc1 (centres undefined) | > 200 µM | > 200 µM | –
O=C1CSC(=S)N1c1ccc(Cl)cc1 | > 148 µM | 56.2 µM | –
Cc1ccc(C)c(NC(=O)C(=O)C(c2cnc3ccc([N+](=O)[O-])cc3n2)[N+](=O)[O-])c1 (centres undefined) | > 123 µM | > 123 µM | –
Cc1ccc2ccccc2c1NC1=NCCO1 | > 200 µM | 107 µM | –
CN(C)CCCNC(=O)c1cc(NC(=O)c2cc(NC(=O)c3cc(NC(=O)/C=C/C(=O)Nc4cn(C)c(C(=O)Nc5cn(C)c(C(=O)Nc6cn(C)c(C(=O)NCCCN(C)C)n6)n5)n4)cn3C)cn2C)cn1C | > 50.1 µM | > 50.1 µM | –
N#CCCN(CCC#N)c1ccc(/C=C2\N=C(c3ccccc3)N(c3ccc(F)cc3)C2=O)cc1 | > 200 µM | > 200 µM | –
